Tests used:
[1] = tested on: Post operation-induced pain model; test: Antiallodynic activity on post operative-induced pain model (von Frey); type: in vivo, Sprague-Dawley rats; settings: ip; rat, intraperitoneal, von Frey, 0.5 h
Procedure: Male Sprague-Dawley rats′(Orient Bio, Korea), 300˜320 g, total of 201 rats were used (details in Table 7). Rats were habituated at least 3 clays before surgery and free access to food and water (room temperature and humidity were maintained at 24±2° C. and 50±10%, respectively). The process of performing the post-operation model's surgery was adapted from Brennan et al (1996). At first, rats with allodynia (threshold valueless than 8 g) were excluded in Pre-von Frey Test. During the post-operation surgery, rats were anesthetized under gaseous anesthesia with 2% isoflurane. Rats were laid face down on a plate fixed at 37° C. to prevent against hypothermia. The ipsilateral plantar aspect (left side) of the hind paw was prepared in a sterile manner with a 10% povidone-iodine solution. […]
For efficacy measure, the threshold value of group C was assigned 100% efficacy, and the percentage of the threshold values of group A compared to group C (for each different dose level) were calculated as the efficacies. Base on these efficacy values, ED50 was calculated using log fitting. […]
For pain threshold test, all animals were placed in a stainless steel meshed chamber and habituated for 30 min in the test box. The tactile sensitivity of the ipsilateral hind paw was measured using the up-and-down method (Dixon, 1980) with seven von Frey monofilaments (0.4, 1, 2, 4, 6, 8, and 15 g) using 3 trials. […]

[2] = tested on: acetic acid-induced writhes (abdominal constriction); test: Writhing test (0.6% acetic acid); type: in vivo, ICR mice; settings: mouse, oral, 0.5 h; read-out: Writ htest: ED50
Procedure: To examine the pain relief effect of the sulfamate derivative compounds, a writhing test was conducted in general pain animal model referring to Fischer, L. G. et al. (2008).
ICR mice (male, 24-28 g; Orient Bio, Korea) were habituated before test in test room for 1 hour. Animals were fasted 2 hr, before administration of compounds. Compounds was orally administered at the close of 20 mg/kg, 10 ul/g, bw (n=3˜5/group). All compounds were dissolved in a vehicle of 30% (v/v) PEG 400 or 20% (v/v) Tween 80. The control group was treated the vehicle without compounds.
[…] Animals were habituated in the cage for 5 min. 5 min after habituation, the number of writhes (abdominal constriction) for 15 min was counted referring to Korzeniewska-Rybicka, I. et al. (1998) and compared with that of a control.

STZ-induced pain model = test: Antiallodynic activity on streptozotocin (STZ)-induced diabetic pain model (von Frey); type: in vivo, Sprague-Dawley rats; settings: ip, rat, intraperitoneal, 0.5 h
Procedure: Male, Sprague-Dawley rats (200-220 g, Nara Bio, Korea) were habituated for 1 week before surgery and allowed free access to food and water throughout the experimentation. Room temperature and humidity were maintained at 24±2° C. and 50±10%, respectively.
STZ-induced diabetic pain model was established with a modified method of Rakieten et al. (1963) and Bertrand Aubel et al. (2004). All animals were fasted 4 to 6 hr prior to STZ injection. STZ (sigma, USA) was dissolved in 20 mM sodium citrate buffer, pH 5.5 (sigma, USA) and intraperitoneally injected at 75 mg/kg, 4 ul/g, bw into the rats. […]
Tactile sensitivity (Mechanical allodynia) was evaluated using von Frey monofilaments before and after treatment of the compound of Examples and animals were used withdrawal threshold value was less than 4 g. […] The tactile sensitivity for ipsilateral hind paw was measured using the up-and-down method (Dixon, 1980) with seven von Frey monofilaments (0.4, 1, 2, 4, 6, 8, and 15 g) to 3 trials. […] The 50% paw withdrawal threshold for each paw was calculated using the following formula: [Xth] log=[vFr] log+ky where [vFr] is the force of the last von Frey used k=0.2249 which is the average interval (in log units) between the von Frey monofilaments, and y is a value that depends upon the pattern of withdrawal responses (Dixon, 1980). […]

CC1(C)O[C@@H](COS(N)(=O)=O)[C@H](c2ccccc2Cl)O1 [Example 2, ((4S,5S)-5-(2-chlorophenyl)-2,2-dimethyl-1,3-dioxolan-4-yl)methyl sulfamate]
ED50 [1]: 1.8 mg/kg | ED50 [2]: 28.4 mg/kg | ED50 (STZ-induced pain model): 7.9 mg/kg

— US9834535B2, “Sulfamate derivative compounds for use in treating or alleviating pain” (Bio-Pharm Solutions Co., Ltd., priority 2013, dated 2017)
